Measured values: patent US7713994B2 (Wyeth LLC, priority 2005, dated 2010)
pIC50: −log10 of the molar value. Read-outs that look alike come from different tables or passages of the source.

Key:
[1] = system: HCT-116; assay: Cytotoxicity assay (SRB), HCT-116; format: cell-based; settings: Homo sapiens, HCT-116, 72 h, HCT116 cells, SRB, read-out: In Vitro Cellular Activity IC50 HCT116
How it was run: (§1)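 Percentage survival is derived from SRB absorbance (540 nm) versus untreated cells. Exposures were 3 days, except 6 days for BT474, at 37 °C and 7% CO2.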

[2] = system: MCF-7; assay: Cytotoxicity assay (SRB), MCF-7; format: cell-based; settings: Homo sapiens, MCF7, 72 h, MCF-7 cells, SRB, read-out: In Vitro Cellular Activity IC50 MCF-7
How it was run: as §1

[3] = target: T1, cyclin D1/cdk 4 enzyme (Homo sapiens, UniProt P11802); assay: CDK4 ELISA kinase assay (phospho-Rb ser 795 detection); format: biochemical
T1 construct: made in house; host or cells: Sf9 insect cells, recombinant baculovirus
How it was run: (§2)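 Partially purified Sf9-expressed cyclin D1/CDK4, cyclin E/CDK2 or cyclin B/CDK1 phosphorylated plate-bound GST-Rb C-terminal fragment with 200 μM ATP at 30° C for 1 h.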

[4] = target: T2, cyclin B/CDK1 enzyme (Homo sapiens, UniProt P06493); assay: CDK1 ELISA kinase assay (phospho-Rb ser 795 detection); format: biochemical
T2 construct: purchased New England BioLabs; host or cells: Sf9 insect cells, recombinant baculovirus
How it was run: as §2

[5] = system: BT474; assay: Cytotoxicity assay (SRB), BT474; format: cell-based
How it was run: as §1

[6] = target: T3, cyclin E/CDK2 enzyme (Homo sapiens, UniProt P24941); assay: CDK2 ELISA kinase assay (phospho-Rb ser 795 detection); format: biochemical
T3 construct: made in house; host or cells: Sf9 insect cells, recombinant baculovirus
How it was run: as §2

[7] = system: LoVo; assay: Cytotoxicity assay (SRB), LoVo; format: cell-based; settings: Homo sapiens, LoVo, 72 h, LoVo cells, SRB, read-out: In Vitro Cellular Activity IC50 LOVO
How it was run: as §1

[8] = In Vitro Enzyme Assays, 200 μM ATP, read-out: CDK4 IC50
[9] = In Vitro Enzyme Assays, read-out: CDK1 IC50
[10] = Homo sapiens, BT-474, 144 h, BT474 cells, SRB, 6 days; read-out: In Vitro Cellular Activity IC50 BT474
[11] = In Vitro Enzyme Assays, read-out: CDK2 IC50
[12] = In Vitro Enzyme Assay, cyclin D1/cdk 4, read-out: CDK4 IC50
[13] = In Vitro Enzyme Assay, cyclin B/CDK1, read-out: CDK1 IC50
[14] = Homo sapiens, BT-474, 144 h, BT474 cells, 6 days, SRB; read-out: In Vitro Cellular Activity IC50 BT474
[15] = In Vitro Enzyme Assay, cyclin E/CDK2, read-out: CDK2 IC50

T1 sequence (P11802 whole entry, species assumed): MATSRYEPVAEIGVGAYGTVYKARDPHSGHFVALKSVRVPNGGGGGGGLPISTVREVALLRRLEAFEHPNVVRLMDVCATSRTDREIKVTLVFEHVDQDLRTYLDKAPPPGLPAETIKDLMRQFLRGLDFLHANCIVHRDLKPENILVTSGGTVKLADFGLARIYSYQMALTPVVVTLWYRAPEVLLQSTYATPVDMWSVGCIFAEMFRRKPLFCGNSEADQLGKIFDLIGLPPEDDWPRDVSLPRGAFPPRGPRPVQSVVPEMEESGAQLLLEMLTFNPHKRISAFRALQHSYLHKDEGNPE
T1 sequence (P24385 whole entry partner, species assumed): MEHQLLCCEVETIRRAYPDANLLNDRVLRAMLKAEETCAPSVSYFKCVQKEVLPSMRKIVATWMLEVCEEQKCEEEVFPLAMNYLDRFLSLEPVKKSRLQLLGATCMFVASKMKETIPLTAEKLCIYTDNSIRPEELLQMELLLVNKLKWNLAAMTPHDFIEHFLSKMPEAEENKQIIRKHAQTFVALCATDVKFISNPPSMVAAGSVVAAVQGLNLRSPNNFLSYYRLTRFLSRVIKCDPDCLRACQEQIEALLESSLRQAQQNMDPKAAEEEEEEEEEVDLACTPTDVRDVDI
T2 sequence (P06493 whole entry): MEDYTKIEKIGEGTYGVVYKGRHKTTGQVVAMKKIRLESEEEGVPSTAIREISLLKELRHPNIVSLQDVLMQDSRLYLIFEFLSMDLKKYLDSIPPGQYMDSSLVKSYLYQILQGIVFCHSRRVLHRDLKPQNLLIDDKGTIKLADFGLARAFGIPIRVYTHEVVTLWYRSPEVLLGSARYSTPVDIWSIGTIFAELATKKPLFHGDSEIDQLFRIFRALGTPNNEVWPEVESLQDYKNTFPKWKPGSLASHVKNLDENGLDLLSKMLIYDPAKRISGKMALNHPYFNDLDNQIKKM
T2 sequence (P14635 whole entry partner): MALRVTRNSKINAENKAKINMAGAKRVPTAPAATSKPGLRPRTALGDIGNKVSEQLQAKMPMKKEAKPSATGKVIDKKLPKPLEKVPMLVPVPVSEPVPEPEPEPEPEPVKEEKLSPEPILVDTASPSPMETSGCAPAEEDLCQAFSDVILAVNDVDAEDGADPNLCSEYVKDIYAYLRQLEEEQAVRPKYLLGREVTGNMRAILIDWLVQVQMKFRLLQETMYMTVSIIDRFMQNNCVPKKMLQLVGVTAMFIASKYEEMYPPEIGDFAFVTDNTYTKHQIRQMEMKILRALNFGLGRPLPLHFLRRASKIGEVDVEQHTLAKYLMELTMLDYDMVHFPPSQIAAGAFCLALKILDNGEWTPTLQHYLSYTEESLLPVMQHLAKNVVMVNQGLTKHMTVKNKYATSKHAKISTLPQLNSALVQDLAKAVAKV

| SMILES | pIC50 ([1]; three days) | pIC50 ([2]; three days) | pIC50 [3, 8] | pIC50 [4, 9] | melting point | pIC50 [5, 10] | pIC50 [6, 11] | pIC50 ([7]; three days) | pIC50 ([1]; 3 days) | pIC50 ([2]; 3 days) | pIC50 [3, 12] | pIC50 [4, 13] | pIC50 [5, 14] | pIC50 [6, 15] | pIC50 ([7]; 3 days) |
| --- | --- | --- | --- | --- | --- | --- | --- | --- | --- | --- | --- | --- | --- | --- | --- |
| CC(=O)Oc1ccc(CN/C=C2\C(=O)NC(=O)c3ccc(Br)cc32)cc1OC(C)=O [Example 54, 2-(Acetyloxy)-4-({[(Z)-(6-bromo-1,3-dioxo-2,3-dihydroisoquinolin-4(1H)-ylidene)methyl]-amino}methyl)phenyl acetate] | 5.19 | 5.04 | 6.80 | < 4.30 | 239 to 240 °C | 5.19 | < 4.30 | 5.23 | – | – | – | – | – | – | – |
| CN(C)C1CCN(Cc2ccc(N/C=C3\C(=O)NC(=O)c4ccc(-c5ccc(F)cc5)cc43)cc2)C1 (stereo not drawn) [Example 512, (4Z)-4-{[(4-{[3-(Dimethylamino)pyrrolidin-1-yl]methyl}phenyl)amino]methylene}-6-(4-fluorophenyl)isoquinoline-1,3(2H,4H)-dione] | – | – | – | – | 95 to 96 °C | – | – | – | 5.92 | 5.57 | 6.70 | < 4.30 | 5.63 | < 4.30 | 5.52 |
| CN1CCN(c2ccc(CN/C=C3\C(=O)NC(=O)c4ccc(I)cc43)cc2O)CC1 [Example 521, (4Z)-4-({[3-Hydroxy-4-(4-methylpiperazin-1-yl)benzyl]amino}methylene)-6-iodoisoquinoline-1,3(2H,4H)-dione] | – | – | – | – | 180 to 181 °C | – | – | – | 5.59 | 5.59 | 7.70 | 5.59 | 5.12 | 6.25 | 5.26 |
| CC1CCCN1Cc1ccc(N/C=C2\C(=O)NC(=O)c3ccc(I)cc32)cc1 (stereo not drawn) [Example 138, (4Z)-6-Iodo-4-[({4-[(2-methylpyrrolidin-1-yl)methyl]phenyl}amino)methylene]isoquinoline-1,3(2H,4H)-dione] | 5.43 | 5.92 | 6.85 | < 4.30 | 157 to 158 °C | 6.39 | < 4.30 | 5.31 | – | – | – | – | – | – | – |
| CCCNc1ccc(CN/C=C2\C(=O)NC(=O)c3ccc(I)cc32)cc1O [Example 366, (4Z)-4-({[3-Hydroxy-4-(propylamino)benzyl]amino}methylene)-6-iodoisoquinoline-1,3(2H,4H)-dione] | 5.48 | 5.16 | 6.92 | 4.50 | 236 to 237 °C | 5.42 | 5.72 | 5.55 | – | – | – | – | – | – | – |
| COc1ccc(CN/C=C2\C(=O)NC(=O)c3ccc(-c4cn[nH]c4)cc32)cc1O [Example 136, (4Z)-4-{[(3-Hydroxy-4-methoxybenzyl)amino]methylene}-6-(1H-pyrazol-4-yl)isoquinoline-1,3(2H,4H)-dione] | 4.60 | 4.32 | 8.30 | 5.40 | 252 to 253 °C | 4.80 | 6.37 | 4.44 | – | – | – | – | – | – | – |
| C[C@@H]1CN(c2ccc(N/C=C3\C(=O)NC(=O)c4ccc(Br)cc43)nc2)C[C@H](C)N1 [Example 469, (4Z)-6-Bromo-4-[({5-[(3R,5S)-3,5-dimethylpiperazin-1-yl]pyridin-2-yl}amino)methylene]isoquinoline-1,3(2H,4H)-dione] | – | – | – | – | 245 to 246 °C | – | – | – | 6.10 | 5.54 | 5.66 | 5.57 | 5.66 | 4.75 | 5.92 |
| CN1CCN(NC(=O)Nc2ccc(N/C=C3\C(=O)NC(=O)c4ccc(Br)cc43)cc2)CC1 [Example 217, N-(4-{[(Z)-(6-Bromo-1,3-dioxo-2,3-dihydroisoquinolin-4(1H)-′ylidene)methyl]amino}phenyl)-N′-(4-methylpiperazin-1-yl)urea] | 5.59 | 5.13 | 4.86 | 4.50 | 270 to 271 °C | 5.48 | < 4.30 | 5.32 | – | – | – | – | – | – | – |
| O=C1NC(=O)c2ccc(Br)cc2/C1=C/c1cc(Br)c(O)c(Br)c1 [Example 94, (4Z)-6-Bromo-4-(3,5-dibromo-4-hydroxybenzylidene)isoquinoline-1,3(2H,4H)-dione] | 5.47 | 5.64 | 5.03 | < 4.30 | 167 to 168 °C | 5.70 | < 4.30 | 5.19 | – | – | – | – | – | – | – |
| C[C@@H]1CN(c2ccc(N/C=C3\C(=O)NC(=O)c4ccc(Br)cc43)cc2)C[C@H](C)N1C [Example 240, (4Z)-6-Bromo-4-[({4-[(3R,5S)-3,4,5-trimethylpiperazin-1-yl]phenyl}amino)methylene]-isoquinoline-1,3(2H,4H)-dione] | 5.57 | 5.70 | 4.76 | < 4.30 | 213 to 214 °C | 5.51 | < 4.30 | 5.43 | – | – | – | – | – | – | – |
| CC(=O)Nc1ccc(CN/C=C2\C(=O)NC(=O)c3ccc(I)cc32)cc1OC(C)=O [Example 146, 2-(Acetylamino)-5-({[(Z)-(6-iodo-1,3-dioxo-2,3-dihydroisoquinolin-4(1H)-′ylidene)methyl]amino}methyl)phenyl acetate] | 6.18 | 5.57 | 7.00 | < 4.30 | 264 to 265 °C | 6.31 | 5.07 | 6.07 | – | – | – | – | – | – | – |
| COc1cc(CN/C=C2\C(=O)NC(=O)c3ccc(-c4ccoc4)cc32)cc(O)c1OC [Example 87] | 5.38 | 5.39 | 9.10 | 5.92 | 263 to 264 °C | 5.89 | 5.09 | 5.38 | – | – | – | – | – | – | – |
| COc1ccc(-c2ccc3c(c2)/C(=C/Nc2cnc(N4C[C@@H](C)N[C@@H](C)C4)c(C)c2)C(=O)NC3=O)cc1 [Example 357, (4Z)-4-[({6-[(3R,5S)-3,5-Dimethylpiperazin-1-yl]-5-methylpyridin-3-yl}amino)methylene]-6-(4-methoxyphenyl)isoquinoline-1,3(2H,4H)-dione] | 5.96 | 5.80 | 4.51 | < 4.30 | 213 to 214 °C | 5.60 | < 4.30 | 5.55 | – | – | – | – | – | – | – |
| O=C1NC(=O)c2ccc(Br)cc2/C1=C/Nc1ccc(CN2CCOCC2)cc1 [Example 286, (4Z)-6-Bromo-4-({[4-(morpholin-4-ylmethyl)phenyl]amino}methylene)isoquinoline-1,3(2H,4H)-dione] | 5.24 | 5.26 | 5.52 | < 4.30 | 209 to 210 °C | 4.80 | < 4.30 | 4.96 | – | – | – | – | – | – | – |
| COc1cc(CN/C=C2\C(=O)NC(=O)c3ccc(-c4ccc(Cl)cc4)cc32)cc(O)c1OC [Example 113, (4Z)-6-(4-Chlorophenyl)-4-{[(3-hydroxy-4,5-dimethoxybenzyl)amino]methylene}isoquinoline-1,3(2H,4H)-dione] | 5.24 | 5.21 | 7.70 | 4.32 | 240 to 241 °C | 4.96 | 4.43 | 5.54 | – | – | – | – | – | – | – |
